Test results reported in article PMC3763632, “Radiosynthesis and Radiotracer Properties of a 7-(2-[^18F]Fluoroethoxy)-6-methoxypyrrolidinylquinazoline for Imaging of Phosphodiesterase 10A with PET” (Pharmaceuticals, 2012).
Several values for one entry are separate records, joined by “and”; a condition that tells them apart may be missing. Equal values may be shown once.

Tests used:
PDE10A = molecular target: T1, PDE10A (Homo sapiens, UniProt Q9Y233); test: Homologous competitive binding on membrane homogenates of PDE10A-transfected SF21 cells
T1 construct: purchased Biocrea GmbH, Radebeul, Germany; host or cells: SF21 insect cells (PDE10A-transfected; baculovirus system is mentioned)
T1 sequence (Q9Y233 whole entry, species assumed): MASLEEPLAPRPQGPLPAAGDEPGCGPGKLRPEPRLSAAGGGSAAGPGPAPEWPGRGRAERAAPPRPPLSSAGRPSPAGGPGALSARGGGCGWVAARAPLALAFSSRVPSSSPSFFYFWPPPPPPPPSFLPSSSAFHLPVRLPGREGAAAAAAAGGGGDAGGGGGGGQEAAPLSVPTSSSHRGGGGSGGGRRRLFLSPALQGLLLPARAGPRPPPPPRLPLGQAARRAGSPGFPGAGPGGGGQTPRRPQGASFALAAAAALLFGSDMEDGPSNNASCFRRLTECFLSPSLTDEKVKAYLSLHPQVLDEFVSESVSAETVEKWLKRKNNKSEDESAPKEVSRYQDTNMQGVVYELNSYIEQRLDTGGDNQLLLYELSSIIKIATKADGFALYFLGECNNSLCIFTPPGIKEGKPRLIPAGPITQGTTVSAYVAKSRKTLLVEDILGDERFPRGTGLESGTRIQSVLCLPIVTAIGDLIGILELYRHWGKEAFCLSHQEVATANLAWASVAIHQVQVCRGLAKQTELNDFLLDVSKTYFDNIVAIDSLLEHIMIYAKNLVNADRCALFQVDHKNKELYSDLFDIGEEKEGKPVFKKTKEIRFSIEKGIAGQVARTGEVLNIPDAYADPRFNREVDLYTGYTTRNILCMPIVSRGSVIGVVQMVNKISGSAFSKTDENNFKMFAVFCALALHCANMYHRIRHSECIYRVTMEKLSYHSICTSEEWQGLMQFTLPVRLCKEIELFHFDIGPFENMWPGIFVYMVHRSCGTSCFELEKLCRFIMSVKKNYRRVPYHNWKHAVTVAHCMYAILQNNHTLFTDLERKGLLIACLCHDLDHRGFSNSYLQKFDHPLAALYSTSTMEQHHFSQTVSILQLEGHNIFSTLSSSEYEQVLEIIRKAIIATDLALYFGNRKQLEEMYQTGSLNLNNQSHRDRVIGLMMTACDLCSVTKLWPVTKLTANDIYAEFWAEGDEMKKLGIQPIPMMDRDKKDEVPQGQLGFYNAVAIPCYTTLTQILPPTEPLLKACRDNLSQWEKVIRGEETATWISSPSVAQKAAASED
Method: The dissociation constant KD of [^18F]IV was determined in homologous competitive binding experiments by nonlinear regression analysis. Cell membrane homogenates from PDE10A-transfected SF21 cells (100 µg protein/mL incubation volume) were incubated with solutions of six concentrations of IV (working concentration 10 pM–[…]), each spiked with a fixed concentration of [^18F]IV (working concentration 0.05–0.1 nM).
Crude membrane homogenates isolated from PDE10A-transfected SF21 cells were obtained from Biocrea GmbH, Radebeul, Germany. For competitive radioligand displacement experiments (n = 2), the membrane preparations were diluted with incubation buffer (50 mM Tris-HCl, pH 7.4 at room temperature, 5 mM MgCl2) and re-homogenized by passing through a 27-gauge needle. The protein (100 µg) was incubated with 0.05–0.1 nM of [^18F]IV and different concentrations of IV (10 pM–1 µM), diluted from a 10 mM stock in DMSO, at a final volume of 1 mL. Nonspecific binding was determined in the presence of 10 µM of I, and control incubation was carried out accordingly using crude membrane preparations obtained from non-transfected SF21 cells.
Incubation at room temperature was terminated after 120 min by rapid filtration (Brandel 48-channel harvester; Biomedical Research and Development Lab. Inc., Gaithersburg, MD, USA) on Whatman GF/B glass-fiber filters, pre-soaked for 90 min in 0.3% polyethylenimine (Sigma, Deisenhofen, Germany), followed by washing four times with 4 mL of ice-cold wash buffer (50 mM Tris-HCl, pH 7.4 at 4 °C). Filter-bound radioactivity was quantified using a calibrated γ-counter (Wallac WIZARD, Perkin Elmer, Waltham, MA, USA).
Each experiment was carried out in triplicate. The binding parameter IC50 was estimated using iterative non-linear curve fitting. KD of [^18F]IV was estimated directly from homologous competition curve with KD = IC50-[radioligand] as well as from the respective saturation isotherm by nonlinear regression analysis.

[1] = log D7.2-7.4 by shake-flask method; type: physicochemical; conditions: overall value from HPLC and shake-flask determinations; read-out: experimental log D7.0–7.4
Method: To clarify these findings, we determined the ligand distribution coefficients for [^18/19F]IV experimentally, under physiological pH conditions in solid-liquid phase systems via retention on RP-HPLC, and in liquid-liquid phase systems by conventional shake-flask method. […] All in one, an experimental log D7.0–7.4 value of ~2.7 promised a good potential for brain uptake of [^18F]IV in vivo, attended by low unspecific binding.
Log D7.2–7.4 values of [^18F]IV were determined using a conventional shake-flask method (multiple distribution in triplicates). Measurements of distribution coefficients were performed in 3 series at 21 °C between n-octanol and three aqueous buffer solutions, physiological phosphate-saline (0.1 M Na3PO4, 0.15 M NaCl, pH 7.2), phosphate buffer (KH2PO4/Na2HPO4•2H2O, 50 mM, pH 7.2) or TRIS-HCl buffer (50 mM, pH 7.4 at 21 °C). Solutions of [^18F]IV (2–5 MBq) in MeCN, MeOH (100 μL) or in 5% ethanol/0.9% NaCl (10 μL) were added to a 15 mL polypropylene tube (n = 3 per buffer system) containing a two-layer system of a selected aqueous solution (3 mL) and n-octanol (3 mL). […] Radioactivity of these samples was quantified using a calibrated γ-counter (Wallac WIZARD, Perkin Elmer, Waltham, MA, USA). […] Distribution coefficients and log D7.2–7.4 values of [^18F]IV were calculated with Microcal^TM Origin (6.0, Microcal Software, Inc., Northhampton, MA, USA).

COc1cc2c(N3CC[C@@H](Oc4cnc5ccccc5n4)C3)ncnc2cc1OCC[18F] [[^18F]IV, (R)-7-(2-[^18F]Fluoroethoxy)-6-methoxy-4-(3-(quinoxalin-2-yloxy)pyrrolidin-1-yl)quinazoline]
Kd (PDE10A; mean, n = 2, calculated from homologous competition): 14 nM and ~14 nM | Kd (PDE10A; single experiments (n = 2)): 15.9 nM and 11.6 nM | logD [1]: ~2.7
